Laboratory results as given in patent US12599136B2, “Substituted isophthalic acid diamides and their use as herbicides” (Bayer Aktiengesellschaft, priority 2020, dated 2026).

Tests used:
Format in all cases: in vivo
Hordeum murinum [1] = experiment: Pre-emergence herbicidal action against HORMU; details: visual score after 3 weeks vs untreated controls
In short: (§1)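 Sandy loam pots, seeds covered with soil, then surface-treated with WP or EC formulations at 600–800 l/ha water plus 0.2% wetting agent. Greenhouse, 3 weeks. Percent damage vs untreated controls.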

Veronica persica [2] = experiment: Post-emergence herbicidal action against VERPE; details: visual assessment about 3 weeks after treatment
In short: (§2)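 Visual % rating (0% = as untreated, 100% = dead) ~3 wk after spraying one-leaf-stage plants grown in sandy loam; WP/EC in water at 600–800 l/ha, 0.2% wetting agent.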

Matricaria inodora [3] = experiment: Post-emergence herbicidal action against MATIN; details: visual assessment about 3 weeks after treatment
In short: as §2

Echinochloa crus-galli [4] = experiment: Pre-emergence herbicidal action against ECHCG; details: visual score after 3 weeks vs untreated controls
In short: as §1

Pharbitis purpurea [5] = experiment: Post-emergence herbicidal action against PHBPU; details: visual assessment about 3 weeks after treatment
In short: as §2

Matricaria inodora [6] = experiment: Pre-emergence herbicidal action against MATIN; details: visual score after 3 weeks vs untreated controls
In short: as §1

Amaranthus retroflexus [7] = experiment: Pre-emergence herbicidal action against AMARE; details: visual score after 3 weeks vs untreated controls
In short: as §1

Stellaria media [8] = experiment: Post-emergence herbicidal action against STEME; details: visual assessment about 3 weeks after treatment
In short: as §2

Viola tricolor [9] = experiment: Post-emergence herbicidal action against VIOTR
In short: as §2

Abutilon theophrasti [10] = experiment: Post-emergence herbicidal action against ABUTH
In short: as §2

Hordeum murinum [11] = experiment: Post-emergence herbicidal action against HORMU
In short: as §2

Cyperus esculentus [12] = experiment: Post-emergence herbicidal action against CYPES; details: visual assessment about 3 weeks after treatment
In short: as §2

Polygonum convolvulus [13] = experiment: Post-emergence herbicidal action against POLCO; details: 80 g/ha, visual assessment about 3 weeks after treatment
In short: as §2

Avena fatua [14] = experiment: Pre-emergence herbicidal action against AVEFA; details: visual score after 3 weeks vs untreated controls
In short: as §1

Lolium rigidum [15] = experiment: Post-emergence herbicidal action against LOLRI
In short: as §2

Viola tricolor [16] = experiment: Pre-emergence herbicidal action against VIOTR
In short: as §1

Setaria viridis [17] = experiment: Pre-emergence herbicidal action against SETVI
In short: as §1

Alopecurus myosuroides [18] = experiment: Post-emergence herbicidal action against ALOMY
In short: as §2

Lolium rigidum [19] = experiment: Pre-emergence herbicidal action against LOLRI
In short: as §1

Amaranthus retroflexus [20] = experiment: Post-emergence herbicidal action against AMARE; details: visual assessment about 3 weeks after treatment
In short: as §2

Avena fatua [21] = experiment: Post-emergence herbicidal action against AVEFA; details: visual assessment about 3 weeks after treatment
In short: as §2

Cyperus esculentus [22] = experiment: Pre-emergence herbicidal action against CYPES; details: visual score after 3 weeks vs untreated controls
In short: as §1

Stellaria media [23] = experiment: Pre-emergence herbicidal action against STEME
In short: as §1

Abutilon theophrasti [24] = experiment: Pre-emergence herbicidal action against ABUTH; details: Dosage column 320 g/ha (heading prints 3200 g/ha); visual score after 3 weeks vs untreated controls
In short: as §1

Echinochloa crus-galli [25] = experiment: Post-emergence herbicidal action against ECHCG; details: visual assessment about 3 weeks after treatment
In short: as §2

Veronica persica [26] = experiment: Pre-emergence herbicidal action against VERPE
In short: as §1

Alopecurus myosuroides [27] = experiment: Pre-emergence herbicidal action against ALOMY; details: visual score after 3 weeks vs untreated controls
In short: as §1

Setaria viridis [28] = experiment: Post-emergence herbicidal action against SETVI; details: visual assessment about 3 weeks after treatment
In short: as §2

Polygonum convolvulus [29] = experiment: Pre-emergence herbicidal action against POLCO
In short: as §1

Pharbitis purpurea [30] = experiment: Pre-emergence herbicidal action against PHBPU; details: visual score after 3 weeks vs untreated controls
In short: as §1

CCN(C)C(=O)c1c(C(F)(F)F)ccc(C(=O)Nc2nnnn2C)c1Cl [Example 1-124]
90%: Pre-emergence action against HORMU (Hordeum murinum [1]; 80 g/ha) | Pre-emergence action against HORMU (Hordeum murinum [1]; 320 g/ha) | Post-emergence action against PHBPU in % (Pharbitis purpurea [5]; 20 g/ha) | Post-emergence action against PHBPU in % (Pharbitis purpurea [5]; 80 g/ha) | Pre-emergence action against MATIN (Matricaria inodora [6]; 80 g/ha) | Pre-emergence action against AMARE (Amaranthus retroflexus [7]; 20 g/ha) | Pre-emergence action against AMARE (Amaranthus retroflexus [7]; 80 g/ha) | Post-emergence action against HORMU in % (Hordeum murinum [11]; 20 g/ha) | Post-emergence action against POLCO in % (Polygonum convolvulus [13]) | Post-emergence action against LOLRI in % (Lolium rigidum [15]; 20 g/ha) | Pre-emergence action against SETVI (Setaria viridis [17]; 20 g/ha) | Post-emergence action against ALOMY (Alopecurus myosuroides [18]; 5 g/ha) | Pre-emergence action against CYPES (Cyperus esculentus [22]; 320 g/ha) | Pre-emergence action against STEME (Stellaria media [23]; 20 g/ha) | Pre-emergence action against STEME (Stellaria media [23]; 80 g/ha) | Pre-emergence action against STEME (Stellaria media [23]; 320 g/ha) | Pre-emergence action against ABUTH (Abutilon theophrasti [24]) | Pre-emergence action against ALOMY (Alopecurus myosuroides [27]; 80 g/ha) | Pre-emergence action against PHBPU (Pharbitis purpurea [30]; 320 g/ha)
100%: Post-emergence action against VERPE in % (Veronica persica [2]; 80 g/ha) | Post-emergence action against MATIN in % (Matricaria inodora [3]; 20 g/ha) | Post-emergence action against MATIN in % (Matricaria inodora [3]; 80 g/ha) | Pre-emergence action against ECHCG (Echinochloa crus-galli [4]; 80 g/ha) | Pre-emergence action against ECHCG (Echinochloa crus-galli [4]; 320 g/ha) | Pre-emergence action against MATIN (Matricaria inodora [6]; 320 g/ha) | Pre-emergence action against AMARE (Amaranthus retroflexus [7]; 320 g/ha) | Post-emergence action against STEME in % (Stellaria media [8]; 5 g/ha) | Post-emergence action against STEME in % (Stellaria media [8]; 20 g/ha) | Post-emergence action against STEME in % (Stellaria media [8]; 80 g/ha) | Post-emergence action against VIOTR in % (Viola tricolor [9]; 5 g/ha) | Post-emergence action against VIOTR in % (Viola tricolor [9]; 20 g/ha) | Post-emergence action against VIOTR in % (Viola tricolor [9]; 80 g/ha) | Post-emergence action against ABUTH (Abutilon theophrasti [10]; 5 g/ha) | Post-emergence action against ABUTH (Abutilon theophrasti [10]; 20 g/ha) | Post-emergence action against ABUTH (Abutilon theophrasti [10]; 80 g/ha) | Post-emergence action against HORMU in % (Hordeum murinum [11]; 80 g/ha) | Pre-emergence action against AVEFA (Avena fatua [14]; 320 g/ha) | Post-emergence action against LOLRI in % (Lolium rigidum [15]; 80 g/ha) | Pre-emergence action against VIOTR (Viola tricolor [16]; 80 g/ha) | Pre-emergence action against VIOTR (Viola tricolor [16]; 320 g/ha) | Pre-emergence action against SETVI (Setaria viridis [17]; 80 g/ha) | Pre-emergence action against SETVI (Setaria viridis [17]; 320 g/ha) | Post-emergence action against ALOMY (Alopecurus myosuroides [18]; 20 g/ha) | Post-emergence action against ALOMY (Alopecurus myosuroides [18]; 80 g/ha) | Pre-emergence action against LOLRI (Lolium rigidum [19]; 320 g/ha) | Post-emergence action against AMARE in % (Amaranthus retroflexus [20]; 5 g/ha) | Post-emergence action against AMARE in % (Amaranthus retroflexus [20]; 20 g/ha) | Post-emergence action against AMARE in % (Amaranthus retroflexus [20]; 80 g/ha) | Post-emergence action against AVEFA in % (Avena fatua [21]; 20 g/ha) | Post-emergence action against AVEFA in % (Avena fatua [21]; 80 g/ha) | Post-emergence action against ECHCG in % (Echinochloa crus-galli [25]; 5 g/ha) | Post-emergence action against ECHCG in % (Echinochloa crus-galli [25]; 20 g/ha) | Post-emergence action against ECHCG in % (Echinochloa crus-galli [25]; 80 g/ha) | Pre-emergence action against VERPE (Veronica persica [26]; 320 g/ha) | Pre-emergence action against ALOMY (Alopecurus myosuroides [27]; 320 g/ha) | Post-emergence action against SETVI in % (Setaria viridis [28]; 5 g/ha) | Post-emergence action against SETVI in % (Setaria viridis [28]; 20 g/ha) | Post-emergence action against SETVI in % (Setaria viridis [28]; 80 g/ha)
80%: Post-emergence action against VERPE in % (Veronica persica [2]; 5 g/ha) | Post-emergence action against VERPE in % (Veronica persica [2]; 20 g/ha) | Pre-emergence action against ECHCG (Echinochloa crus-galli [4]; 20 g/ha) | Post-emergence action against PHBPU in % (Pharbitis purpurea [5]; 5 g/ha) | Pre-emergence action against MATIN (Matricaria inodora [6]; 20 g/ha) | Post-emergence action against HORMU in % (Hordeum murinum [11]; 5 g/ha) | Post-emergence action against CYPES in % (Cyperus esculentus [12]; 20 g/ha) | Post-emergence action against CYPES in % (Cyperus esculentus [12]; 80 g/ha) | Pre-emergence action against AVEFA (Avena fatua [14]; 80 g/ha) | Pre-emergence action against LOLRI (Lolium rigidum [19]; 80 g/ha) | Post-emergence action against AVEFA in % (Avena fatua [21]; 5 g/ha) | Pre-emergence action against CYPES (Cyperus esculentus [22]; 80 g/ha) | Pre-emergence action against VERPE (Veronica persica [26]; 80 g/ha) | Pre-emergence action against ALOMY (Alopecurus myosuroides [27]; 20 g/ha) | Pre-emergence action against POLCO (Polygonum convolvulus [29]; 80 g/ha) | Pre-emergence action against POLCO (Polygonum convolvulus [29]; 320 g/ha) | Pre-emergence action against PHBPU (Pharbitis purpurea [30]; 80 g/ha)
